How the values were obtained:
Assay type in all cases: cell-based
[1] = system: J774A.1 (Mouse BALB/c monocyte macrophage cell line) cells; assay: LPS+ATP-induced IL-1β secretion inhibition in J774A.1 cells; settings: J774.A1, 1 μM compound, graded compared to taurodeoxycholic acid (positive control), read-out: IL-1β production inhibition grade
Summary of the method: (§1)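 Mouse J774A.1 macrophages treated with 1 μM compound; TNF-α secretion measured after LPS stimulation and IL-1β secretion after LPS+ATP stimulation. Suppression graded against taurodeoxycholic acid: A over 100%, B 50–100%, C 20–50%, D under 20%.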

[2] = system: U937 cells (human monocytic cell line); assay: BzATP-induced IL-1β secretion inhibition in PMA-differentiated U937 cells; settings: U-937, U937 cells differentiated with PMA, read-out: IL-1β production inhibition grade (IC50)
Summary of the method: (§2)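 U937 cells were PMA-differentiated into macrophages and treated with compound before inflammatory stimulus. TNF-α secretion was induced with Pam2CSK4 and IL-1β secretion with BzATP. IC50 (μM) values are graded A-D, with separate cut-offs per cytokine.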

[3] = system: U937 cells (human monocytic cell line); assay: Pam2CSK4-induced TNF-α secretion inhibition in PMA-differentiated U937 cells; settings: U-937, U937 cells differentiated with PMA, read-out: TNF-α production inhibition grade (IC50)
Summary of the method: as §2

[4] = system: J774A.1 (Mouse BALB/c monocyte macrophage cell line) cells; assay: LPS-induced TNF-α secretion inhibition in J774A.1 cells; settings: J774.A1, 1 μM compound, graded compared to taurodeoxycholic acid (positive control), read-out: TNF-α production inhibition grade
Summary of the method: as §1

CC[C@H]1[C@@H](O)[C@@H]2[C@H](C[C@H](O)[C@]3(C)[C@@H]([C@H](C)CCC(=O)N[C@@H](CO)CS(=O)(=O)O)CC[C@@H]23)[C@@]2(C)CC[C@@H](O)C[C@@H]12 [NC50024]
inhibition at 1 µM [1]: 20 to 50% | IC50 [2]: ≥ 200 nM | IC50 [3]: ≥ 2000 nM | inhibition at 1 µM [4]: < 20%

CC[C@H]1[C@@H](O)[C@@H]2[C@H](C[C@H](O)[C@]3(C)[C@@H]([C@H](C)CCC(=O)N[C@H]4CCCC[C@H]4S(=O)(=O)O)CC[C@@H]23)[C@@]2(C)CC[C@@H](O)C[C@@H]12 [NC50027]
inhibition at 1 µM [1]: 20 to 50% | IC50 [2]: ≥ 200 nM | IC50 [3]: 1000 to 2000 nM | inhibition at 1 µM [4]: < 20%

CC[C@H]1[C@@H](O)[C@@H]2[C@H](C[C@H](O)[C@]3(C)[C@@H]([C@H](C)CCC(=O)N[C@@H](C)CS(=O)(=O)O)CC[C@@H]23)[C@@]2(C)CC[C@@H](O)C[C@@H]12 [NC50028]
inhibition at 1 µM [1]: 50 to 100% | IC50 [2]: ≥ 200 nM | IC50 [3]: 1000 to 2000 nM | inhibition at 1 µM [4]: < 20%

CC[C@H]1[C@@H](O)[C@@H]2[C@H](C[C@H](O)[C@]3(C)[C@@H]([C@H](C)CCC(=O)N[C@H](C)CS(=O)(=O)O)CC[C@@H]23)[C@@]2(C)CC[C@@H](O)C[C@@H]12 [NC50029]
inhibition at 1 µM [1]: 50 to 100% | IC50 [2]: ≥ 200 nM | IC50 [3]: 500 to 1000 nM | inhibition at 1 µM [4]: < 20%

CC[C@H]1[C@@H](O)[C@@H]2[C@H](C[C@H](O)[C@]3(C)[C@@H]([C@H](C)CCC(=O)N[C@@H](CC(C)C)CS(=O)(=O)O)CC[C@@H]23)[C@@]2(C)CC[C@@H](O)C[C@@H]12 [NC50030]
inhibition at 1 µM [1]: 50 to 100% | IC50 [2]: 100 to 200 nM | IC50 [3]: ≥ 2000 nM | inhibition at 1 µM [4]: < 20%

CC[C@H]1[C@@H](O)[C@@H]2[C@H](C[C@H](O)[C@]3(C)[C@@H]([C@H](C)CCC(=O)N[C@H](CC(C)C)CS(=O)(=O)O)CC[C@@H]23)[C@@]2(C)CC[C@@H](O)C[C@@H]12 [NC50031]
inhibition at 1 µM [1]: 50 to 100% | IC50 [2]: 50 to 100 nM | IC50 [3]: ≥ 2000 nM | inhibition at 1 µM [4]: < 20%

CC[C@H]1[C@@H](O)[C@@H]2[C@H](C[C@H](O)[C@]3(C)[C@@H]([C@H](C)CCC(=O)NC4(CS(=O)(=O)O)CC4)CC[C@@H]23)[C@@]2(C)CC[C@@H](O)C[C@@H]12 [NC50032]
inhibition at 1 µM [1]: 50 to 100% | IC50 [2]: 50 to 100 nM | IC50 [3]: ≥ 2000 nM | inhibition at 1 µM [4]: < 20%

— patent publication US20240391948A1, “NOVEL COMPOUND THAT INHIBITS TNF-ALPHA GENERATION AND INFLAMMASOME ACTIVITY AND PREPARATION METHOD THEREFOR” (SHAPERON INC., priority 2021, published 2024)
